Assays:
[1] = molecular target: human muscarinic M3 receptor (Homo sapiens, UniProt P20309)
[2] = molecular target: T1, human c-Mpl-introduced Ba/F3 cell (Homo sapiens, UniProt P40238); assay: Test Example 2: human c-Mpl-introduced Ba/F3 cell proliferative activity; type: cell-based; settings: concentration exhibiting 30% proliferation; 100% = positive control (Example 315 of Patent Document 1) at 1 μM
T1 construct: expressed in transfected cells
T1 sequence (P40238 26-635): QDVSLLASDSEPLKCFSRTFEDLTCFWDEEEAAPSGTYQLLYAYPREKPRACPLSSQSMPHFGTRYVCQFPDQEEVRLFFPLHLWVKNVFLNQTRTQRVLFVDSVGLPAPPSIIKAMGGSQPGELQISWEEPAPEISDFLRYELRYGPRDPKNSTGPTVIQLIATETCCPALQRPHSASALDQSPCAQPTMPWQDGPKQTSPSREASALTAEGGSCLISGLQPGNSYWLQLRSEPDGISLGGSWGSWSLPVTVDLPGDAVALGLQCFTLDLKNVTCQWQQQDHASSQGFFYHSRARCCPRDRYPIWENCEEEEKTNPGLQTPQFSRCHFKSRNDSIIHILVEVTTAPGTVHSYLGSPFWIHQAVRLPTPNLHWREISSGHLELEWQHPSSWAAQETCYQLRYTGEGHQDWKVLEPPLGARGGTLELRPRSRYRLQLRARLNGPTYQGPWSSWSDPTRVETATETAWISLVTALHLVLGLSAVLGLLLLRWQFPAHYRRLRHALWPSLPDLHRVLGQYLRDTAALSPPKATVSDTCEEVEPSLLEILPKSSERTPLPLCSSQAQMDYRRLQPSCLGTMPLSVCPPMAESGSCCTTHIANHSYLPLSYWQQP
Procedure: Test Example 2: Evaluation of Human c-Mpl-Introduced Ba/F3 Cell Proliferative Activity
The human c-Mpl-introduced Ba/F3 cell proliferation action was measured by the following method.
As a positive control, 1-(5-{[4-(4-chlorothiophen-2-yl)-5-{[(2R)-2-methylpyrrolidin-1-yl]methyl}-1,3-thiazol-2-yl]carbamoyl}-3-fluoropyridin-2-yl)piperidine-4-carboxylic acid hydrochloride disclosed as Example 315 in Patent Document 1, represented by the formula (A1) above, was used. Further, it is known that the compound has a good human c-Mpl-introduced Ba/F3 cell proliferative activity as disclosed in Table 1 in Patent Document 1.
a) Construction of Vector Expressing Human c-Mpl Receptor
A human c-Mpl receptor gene (GenBank Accession No.: M90102.1) was transfected into an expression vector pEF-BOS (Nucleic Acids Research, 18: pp 5322 (1990)).
b) Construction of Cell Stably Expressing Human c-Mpl Receptor
A vector expressing a human c-Mpl receptor was introduced into a Ba/F3 cell (RIKEN BRC: RCB0805). For the introduction, an electroporation method was used. pEF-BOS-c-mpl (10 μg), pSV2bsr (1 μg, Kaken Pharmaceutical Co., Ltd.) and 1×10^7 of Ba/F3 cells were put into cuvettes with a gap width of 0.4 cm and electroporated under a condition of 1.5 kV (25 μF) in a Gene Pulser (registered trademark) (BioRad). The cells were incubated in an RPMI-1640 medium supplemented with a 0.5% WEHI conditioned medium (BD Biosciences) and 10% fetal bovine serum for 3 days, and thereafter, and the cells were incubated for 30 days in an RPMI-1640 medium, to which 10 μg/mL blasticidin had been further added, thereby acquiring a drug-resistant clone.
c) Measurement of Cell Proliferative Activity
The cells obtained in b) above were dispensed into an RPMI-1640 medium supplemented with a 0.5% WEHI conditioned medium and 10% fetal bovine serum, and used. The day before the experiment, the test substances (final concentration of 100 nM to 10 μM) which had been dissolved in a medium for assay (an RPMI-1640 medium supplemented with 10% fetal bovine serum) were added to a 384-well plate (Model No. 781185, Greiner bio-one). The cells after the medium had been replaced with the medium for assay were dispensed to a 384-well plate to which the test substance had been added, to 1×10^4 cells/well, and incubated overnight at 37° C. and 5% CO2. On the experiment day, a solution of a Cell counting kit (Dojindo Laboratories) was added to each well of the 384-well plate, and the cells were incubated for about 5 hours at 37° C. and 5% CO2. Thereafter, the absorbance (an absorbance wavelength of 450 nm) of each well was measured using Safire^2 (registered trademark) (TECAN), and used as an index for the number of cells. Further, as a negative control, a well to which the test substances had not been added was prepared.
By taking the absorbance of the well to which the test substance had been not added as 0% and taking the absorbance in a case where the positive control had been added to a final concentration of 1 μM as 100%, a cell proliferation rate (%) was calculated from the absorbance of the well to which the test substance had been added.

Sequence of human muscarinic M3 receptor (P20309 whole entry): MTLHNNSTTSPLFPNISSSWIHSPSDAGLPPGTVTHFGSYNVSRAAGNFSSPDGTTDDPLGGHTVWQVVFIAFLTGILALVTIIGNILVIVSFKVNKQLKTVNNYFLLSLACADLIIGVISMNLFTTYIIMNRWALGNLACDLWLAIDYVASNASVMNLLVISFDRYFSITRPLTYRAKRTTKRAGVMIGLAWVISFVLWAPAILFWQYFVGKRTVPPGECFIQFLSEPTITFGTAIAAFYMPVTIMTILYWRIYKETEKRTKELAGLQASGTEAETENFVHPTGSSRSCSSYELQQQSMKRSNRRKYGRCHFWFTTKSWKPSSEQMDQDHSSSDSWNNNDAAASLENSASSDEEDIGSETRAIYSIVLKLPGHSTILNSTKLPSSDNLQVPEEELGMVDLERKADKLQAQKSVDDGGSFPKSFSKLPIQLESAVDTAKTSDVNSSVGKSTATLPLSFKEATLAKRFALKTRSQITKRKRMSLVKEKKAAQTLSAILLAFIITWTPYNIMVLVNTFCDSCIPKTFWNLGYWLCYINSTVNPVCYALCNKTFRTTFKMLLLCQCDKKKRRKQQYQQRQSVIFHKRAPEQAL

| muscarinic M3 receptor-positive allosteric modulator activity, 1 μM (-fold shift) [1] | muscarinic M3 receptor-positive allosteric modulator activity, 10 μM (-fold shift) [1] | human c-Mpl-introduced Ba/F3 cell proliferative activity EC30 [2] [µM] | Compound |
| --- | --- | --- | --- |
| 15 -fold shift | 109 -fold shift | >10 | C[C@@H]1CCCN1Cc1sc(NC(=O)c2cnc(N3CCN(CCC(=O)O)C[C@@H]3C)cn2)nc1-c1cc(F)cc(C(F)(F)F)c1 [Example 17] |
| 31 -fold shift | 330 -fold shift | >10 | C[C@@H]1CCCN1Cc1sc(NC(=O)c2cnc(N3CCN(CCC(=O)O)CC3)cn2)nc1-c1cc(Br)cc(C(F)(F)F)c1 [Example 27] |
| 43 -fold shift | 160 -fold shift | >10 | CC[C@@H]1CCCN1Cc1sc(NC(=O)c2cnc(N3CCN(CC(=O)O)CC3)cn2)nc1-c1ccc(OC)c(C(F)(F)F)c1 [Example 41] |
| 36 -fold shift | 134 -fold shift | >10 | CCOc1ccc(-c2nc(NC(=O)c3cnc(N4CCN(CCC(=O)O)CC4)cn3)sc2CN2CCC[C@H]2C)cc1C(F)(F)F [Example 54] |
| 37 -fold shift | 195 -fold shift | >10 | CC[C@@H]1CCCN1Cc1sc(NC(=O)c2cnc(N3CCN(CC(=O)O)CC3)cn2)nc1-c1cc(F)cc(C(F)(F)F)c1 [Example 62] |
| 39 -fold shift | 186 -fold shift | >10 | C[C@@H]1CCCN1Cc1sc(NC(=O)c2cnc(N3CCN(CCC(=O)O)CC3)cn2)nc1-c1ccc(C2CC2)c(C(F)(F)F)c1 [Example 63] |
| 27 -fold shift | 177 -fold shift | >10 | CC[C@@H]1CCCN1Cc1sc(NC(=O)c2cnc(N3CCN(CCC(=O)O)CC3)cn2)nc1-c1cc(C2CC2)cc(C(F)(F)F)c1 [Example 69] |
| 28 -fold shift | 151 -fold shift | >10 | Cc1cc(-c2nc(NC(=O)c3cnc(N4CCN(CC(=O)O)CC4)cn3)sc2CN2CCC[C@H]2C)cc(C(F)(F)F)c1 [Example 71] |
| 56 -fold shift | 169 -fold shift | >10 | CN(Cc1sc(NC(=O)c2cnc(N3CCN(CCC(=O)O)CC3)cn2)nc1-c1cc(F)cc(C(F)(F)F)c1)CC1CC1 [Example 108] |

Further lines, the molecule ahead of its results:

| Compound | muscarinic M3 receptor-positive allosteric modulator activity, 1 μM (-fold shift) [1] | muscarinic M3 receptor-positive allosteric modulator activity, 10 μM (-fold shift) [1] | human c-Mpl-introduced Ba/F3 cell proliferative activity EC30 [2] [µM] |
| --- | --- | --- | --- |
| CC(C(=O)O)N1CCN(c2cnc(C(=O)Nc3nc(-c4cc(Cl)cc(C(F)(F)F)c4)c(CN4CCC[C@H]4C)s3)cn2)CC1 (stereo partly drawn) [Example 12] | 33 -fold shift | 178 -fold shift | >10 |
| COc1ncc(-c2nc(NC(=O)c3cnc(N4CCN(CCC(=O)O)CC4)cn3)sc2CN2CCC[C@H]2C)cc1C(F)(F)F [Example 33] | 40 -fold shift | 182 -fold shift | >10 |
| C[C@@H]1CN(c2cnc(C(=O)Nc3nc(-c4cc(Cl)cs4)c(CN4CCC[C@H]4C)s3)cn2)CCN1CCC(=O)O [Example 79] | 60 -fold shift | 171 -fold shift | 1.8 |
| CC[C@@H]1CCCN1Cc1sc(NC(=O)c2cnc(N3CCN(CCC(=O)O)[C@@H](C)C3)cn2)nc1-c1cc(Cl)cs1 [Example 81] | 89 -fold shift | 94 -fold shift | 0.5 |
| COc1c(F)cc(-c2nc(NC(=O)c3cnc(N4CCN(CCC(=O)O)C[C@@H]4C)cn3)sc2CN2CCC[C@H]2C)cc1C(F)(F)F [Example 91] | 19 -fold shift | 139 -fold shift | >10 |
| COc1c(F)cc(-c2nc(NC(=O)c3cnc(N4CCN(CCC(=O)O)C[C@H]4C)cn3)sc2CN2CCC[C@H]2C)cc1C(F)(F)F [Example 92] | 30 -fold shift | 203 -fold shift | >10 |
| C[C@@H]1CCCN1Cc1sc(NC(=O)c2cnc(N3CCN(CCC(=O)O)CC3)cn2)nc1-c1cc(Br)cs1 [Example 97] | 55 -fold shift | 121 -fold shift | 2.8 |
| C[C@@H]1CCCN1Cc1sc(NC(=O)c2cnc(N3CCN(CCC(=O)O)C[C@@H]3C)cn2)nc1-c1cc(C(F)(F)F)cs1 [Example 100] | 82 -fold shift | 229 -fold shift | 3.2 |
| C[C@@H]1CCCN1Cc1sc(NC(=O)c2cnc(N3CCN(CCC(=O)O)C[C@H]3C)cn2)nc1-c1cc(Br)cs1 [Example 101] | 64 -fold shift | 112 -fold shift | 2.7 |
| C[C@@H]1CCCN1Cc1sc(NC(=O)c2cnc(N3CCN(CC(=O)O)CC3)cn2)nc1-c1cc(C(F)(F)F)cs1 [Example 103] | 202 -fold shift | 307 -fold shift | 1.7 |
| CCN(Cc1sc(NC(=O)c2cnc(N3CCN(CCC(=O)O)CC3)cn2)nc1-c1cc(F)cc(C(F)(F)F)c1)C(C)C [Example 106] | 41 -fold shift | 270 -fold shift | >10 |
| CC(C)CN(C)Cc1sc(NC(=O)c2cnc(N3CCN(CCC(=O)O)CC3)cn2)nc1-c1cc(F)cc(C(F)(F)F)c1 [Example 107] | 73 -fold shift | 318 -fold shift | >10 |

— US9951060B2, “2-acylaminothiazole derivative or salt thereof” (ASTELLAS PHARMA INC., priority 2014, dated 2018)
